Where “and” joins values, the source holds several entries; their conditions need not be identical. Equal entries are not always repeated.

One may read the Ki as the equilibrium dissociation constant of an inhibitor or competing ligand from its target. Usually IC50 stands for the midpoint of a concentration-inhibition curve. A high value points to weaker potency in that assay.

One assay has as its target BRD4 BD1 protein (Homo sapiens (Human), UniProt O60885). Description: Fluorescence polarization binding affinity (Ki) with BRD4 BD1 protein. Particulars: fluorescence polarization; Ki calculated from IC50.
A further assay has as its target BRD4 BD2 protein (Homo sapiens (Human), UniProt O60885). In words: Fluorescence polarization binding affinity (Ki) with BRD4 BD2 protein. The settings on record: fluorescence polarization; Ki calculated from IC50.
Assay [1] relates to multiple myeloma MM.1S cell line. In words: Cell viability (CCK-8), multiple myeloma MM.1S. Type of assay: cell-based. The settings on record: MM.1S cells, 4 days, CCK-8, 50% inhibition of cell growth. On the procedure: 3. Determination of cell viability of the compound
The sample to be tested was dissolved with 100% dimethyl sulfoxide to prepare a 20 mM stock solution of the compound, which was diluted with 100% dimethyl sulfoxide to the highest compound concentration required for the experiment (2.5 mM).
First, 145 uL of a complete cell culture medium was added to wells B1-G1 of a 96-well flat-bottomed tansparent cell culture plate, and 100 uL of the complete medium was added to wells B2-G12, respectively. Then, 5 uL of the 2.5 mM solution of the compound was added to wells B1-D1 and E1-G1 respectively, and then diluted gradiently by 3-folds to B12-D12 and E12-G12 in sequence. Finally, 50 uL of the solution of the cells to be tested was added to each well, with about 3000-5000 cells per well, and a total volume of 150 uL per well.
In the experiment, in addition to the tested compound, two other control groups were set up: 1) a control group adding the cells and the complete medium, but without adding the compound; 2) a control group adding the complete medium only, without adding the cells and the compound. The 96-well plate was placed in a 37° C. cell culture incubator containing 5% carbon dioxide for 4 days, added with 15 uL of a CCK-8 reagent per well, and then incubated at 37° C. for 2-4 hours. The 96-well plate was read on a TECAN microplate reader, and the absorbance value at 450 nm wavelength was taken.
The effect of different concentrations of the compound on cell viability was calculated by the following equation: [absorption value of the experimental group−absorption value of pure cell culture medium without the cells or the compound]/[absorption value of the control group with the tumor cells but no testing compound−absorption value of pure cell culture medium without the cell or the compound]×100%.
The above data were precessed by software, and the IC50 value was the concentration of the compound corresponding to the 50% inhibition rate of cell growth.
Based on the above test method of the compound on cell viability, a variety of […] cancer cell lines were tested, using multiple myeloma MM.1S, breast cancer MDA-MB-231 and leukemia MV4-11 cell lines as exemples. Using this test method, the IC50 values of partial compounds in the examples of the present invention measured in multiple myeloma MM.1S, breast cancer MDA-MB-231 cell lines and leukemia MV4-11 cell lines were shown in Table 2.

On to `Cc1nnn2c1-c1ccc(-c3cnn(C)c3)cc1C(Oc1ccc(Cl)cc1)CC2` (stereo not drawn) [BE128, 7-(4-chlorophenoxy)-1-methyl-9-(1-methyl-1H-pyrazol-4-yl)-6,7-dihydro-5H-benzo[c][1,2,3]triazolo[1,5-a]azepine], for which the results for the inhibitory constant (Ki) at BRD4 BD1 protein and on BRD4 BD2 protein were 0.176 µM and 0.0171 µM, respectively. In assay [1] (Homo sapiens, MM1.S, 96 h), the concentration for half-maximal inhibition (IC50) amounted to 0.689 µM.

With `Cc1nnn2c1-c1ccc(-c3cnn(C)c3)cc1C(Nc1cc(C3CC3)nn1C)CC2` (stereo not drawn) [BE130, N-(3-cyclopropyl-1-methyl-1H-pyrazol-5-yl)-1-methyl-9-(1-methyl-1H-pyrazol-4-yl)-6,7-dihydro-5H-benzo[c][1,2,3]triazolo[1,5-a]azepin-7-amine], the values for the inhibition constant (Ki) at BRD4 BD1 protein and at BRD4 BD2 protein were 0.139 µM and 0.0299 µM, respectively. In assay [1] (Homo sapiens, MM1.S, 96 h), the IC50 amounted to 0.171 µM.

On to `CC(=O)N1CC=C(c2ccc3c(c2)C(Nc2cccc(Cl)c2)CCn2nnc(C)c2-3)CC1` (stereo not drawn) [BH29, 1-(4-(7-((3-chlorophenyl)amino)-1-methyl-6,7-dihydro-5H-benzo[c][1,2,3]triazolo[1,5-a]azepin-9-yl)-3,6-dihydropyridin-1(2H)-yl)ethan-1-one], for which the inhibition constant (Ki) at BRD4 BD1 protein is 0.0395 µM; at BRD4 BD2 protein, 0.00126 µM. The IC50 in assay [1] (Homo sapiens, MM1.S, 96 h) was determined as 0.001 µM.

On to `Cc1nnn2c1-c1ccc(C3=CCN(C(C)C)CC3)cc1C(Nc1cccc(Cl)c1)CC2` (stereo not drawn) [BH32, N-(3-chlorophenyl)-9-(1-isopropyl-1,2,3,6-tetrahydropyridin-4-yl)-1-methyl-6,7-dihydro-5H-benzo[c][1,2,3]triazolo[1,5-a]azepin-7-amine 2,2,2-trifluoroacetate], for which the inhibitory constant (Ki) on BRD4 BD1 protein was 0.525 µM; at BRD4 BD2 protein, 0.00975 µM. Further, in assay [1] (Homo sapiens, MM1.S, 96 h), 0.119 µM corresponded to half-maximal inhibition (IC50).

For the compound `CCN1CC=C(c2ccc3c(c2)C(Nc2cccc(OC)c2)CCn2nnc(C)c2-3)CC1` (stereo not drawn) [BH33, 9-(1-ethyl-1,2,3,6-tetrahydropyridin-4-yl)-N-(3-methoxyphenyl)-1-methyl-6,7-dihydro-5H-benzo[c][1,2,3]triazolo[1,5-a]azepin-7-amine 2,2,2-trifluoroacetate], the Ki on BRD4 BD1 protein was 1.78 µM and 0.693 µM; on BRD4 BD2 protein it was 0.0386 µM and 0.0279 µM. This compound also registered an IC50 in assay [1] (Homo sapiens, MM1.S, 96 h) of 0.187 µM.

Regarding `COc1cccc(NC2CCn3nnc(C)c3-c3ccc(C4=CCN(C(C)C)CC4)cc32)c1` (stereo not drawn) [BH37, 9-(1-isopropyl-1,2,3,6-tetrahydropyridin-4-yl)-N-(3-methoxyphenyl)-1-methyl-6,7-dihydro-5H-benzo[c][1,2,3]triazolo[1,5-a]azepin-7-amine 2,2,2-trifluoroacetate], the Ki at BRD4 BD1 protein is 1.88 µM and 1.56 µM; at BRD4 BD2 protein it was 0.0619 µM and 0.0283 µM. The compound also had a half-inhibitory concentration (IC50) in assay [1] (Homo sapiens, MM1.S, 96 h) of 0.352 µM.

As to `COc1ccc(NC2CCc3onc(C)c3-c3ccc(OC)cc32)cc1` (stereo not drawn) [FA01, 8-methoxy-N-(4-methoxyphenyl)-1-methyl-5,6-dihydro-4H-benzo[6,7]cyclohepta[1,2-d]isoxazol-6-amine], the inhibition constant (Ki) on BRD4 BD1 protein is 0.169 µM; on BRD4 BD2 protein it was 0.105 µM. Also, in assay [1] (Homo sapiens, MM1.S, 96 h), the IC50 was 0.559 µM.

For `COc1ccc2c(c1)C(Nc1ccccc1)CCc1onc(C)c1-2` (stereo not drawn) [FA03, 8-methoxy-1-methyl-N-phenyl-5,6-dihydro-4H-benzo[6,7]cyclohepta[1,2-d]isoxazol-6-amine], the Ki at BRD4 BD1 protein is 0.206 µM; at BRD4 BD2 protein it was 0.0563 µM. Further, in assay [1] (Homo sapiens, MM1.S, 96 h), the midpoint of inhibition, the IC50, lay at 0.502 µM.

Consider `COc1ccc2c(c1)C(Nc1ccc(C(F)(F)F)cc1)CCc1onc(C)c1-2` (stereo not drawn) [FA05, 8-methoxy-1-methyl-N-(4-(trifluoromethyl)phenyl)-5,6-dihydro-4H-benzo[6,7]cyclohepta[1,2-d]isoxazol-6-amine], for which the inhibitory constant (Ki) at BRD4 BD1 protein is 0.205 µM; at BRD4 BD2 protein, 0.138 µM. In assay [1] (Homo sapiens, MM1.S, 96 h), this compound registered a half-inhibitory concentration (IC50) of 0.0252 µM.

`Cc1noc2c1-c1ccc(-c3cnn(C)c3)cc1C(Nc1ccc(Cl)cc1)CC2` (stereo not drawn) [LA55, N-(4-chlorophenyl)-1-methyl-8-(1-methyl-1H-pyrazol-4-yl)-5,6-dihydro-4H-benzo[6,7]cyclohepta[1,2-d]isoxazol-6-amine]: the Ki is 0.0537 µM on BRD4 BD1 protein and 0.0255 µM at BRD4 BD2 protein. In assay [1] (Homo sapiens, MM1.S, 96 h), this compound returned an IC50 of 0.0265 µM.

Turning to `Cc1noc2c1-c1ccc(-c3cn[nH]c3)cc1C(Nc1ccc(Cl)cc1)CC2` (stereo not drawn) [LA108, N-(4-chlorophenyl)-1-methyl-8-(1H-pyrazol-4-yl)-5,6-dihydro-4H-benzo[6,7]cyclohepta[1,2-d]isoxazol-6-amine], the Ki on BRD4 BD1 protein was 0.0805 µM; at BRD4 BD2 protein, 0.0317 µM. The IC50 in assay [1] (Homo sapiens, MM1.S, 96 h) was determined as 0.0302 µM.

On to `Cc1nnn2c1-c1ccc(-c3cnn(C)c3)cc1C(Nc1ccccc1CCO)CC2` (stereo not drawn) [LA198, 2-(2-((1-methyl-9-(1-methyl-1H-pyrazol-4-yl)-6,7-dihydro-5H-benzo[c][1,2,3]triazolo[1,5-a]azepin-7-yl)amino)phenyl)ethan-1-ol], for which the Ki at BRD4 BD1 protein was 0.044 µM; on BRD4 BD2 protein, 0.0214 µM. In assay [1] (Homo sapiens, MM1.S, 96 h), this compound gave an IC50 of 0.0229 µM.

On to `Cc1nnn2c1-c1ccc(-c3cnn(C)c3)cc1C(Nc1ccc(N(C)C)cc1)CC2` (stereo not drawn) [LB17, N^1,N^1-dimethyl-N^4-(1-methyl-9-(1-methyl-1H-pyrazol-4-yl)-6,7-dihydro-5H-benzo[c][1,2,3]triazolo[1,5-a]azepin-7-yl)benzene-1,4-diamine], for which the values for the Ki at BRD4 BD1 protein and on BRD4 BD2 protein were 0.236 µM and 0.044 µM, respectively. Moreover, the midpoint of inhibition in assay [1] (Homo sapiens, MM1.S, 96 h), the IC50, lay at 0.119 µM.

As to `Cc1nnn2c1-c1ccc(-c3cnn(C)c3)cc1C(Nc1ccc(C(=O)O)cc1)CC2` (stereo not drawn) [LB20, 4-((1-methyl-9-(1-methyl-1H-pyrazol-4-yl)-6,7-dihydro-5H-benzo[c][1,2,3]triazolo[1,5-a]azepin-7-yl)amino)benzoic acid], the Ki on BRD4 BD1 protein is 1.72 µM; at BRD4 BD2 protein, 0.0828 µM. Half-maximal inhibition in assay [1] (Homo sapiens, MM1.S, 96 h) (IC50) was put at 2.46 µM.

`Cc1nnn2c1-c1ccc(-c3cnn(C)c3)cc1C(Nc1ccc(CCO)cc1)CC2` (stereo not drawn) [LB24, 2-(4-((1-methyl-9-(1-methyl-1H-pyrazol-4-yl)-6,7-dihydro-5H-benzo[c][1,2,3]triazolo[1,5-a]azepin-7-yl)amino)phenyl)ethan-1-ol]: the Ki at BRD4 BD1 protein is 0.0645 µM; at BRD4 BD2 protein it was 0.0224 µM. This compound showed a half-inhibitory concentration (IC50) in assay [1] (Homo sapiens, MM1.S, 96 h) of 0.0517 µM.

In the case of `Cc1nnn2c1-c1ccc(-c3cnn(C)c3)cc1C(Nc1ccc(C(N)=O)cc1)CC2` (stereo not drawn) [LB32, 4-((1-methyl-9-(1-methyl-1H-pyrazol-4-yl)-6,7-dihydro-5H-benzo[c][1,2,3]triazolo[1,5-a]azepin-7-yl)amino)benzamide], the Ki at BRD4 BD1 protein was 0.235 µM; on BRD4 BD2 protein, 0.0437 µM. Besides, the IC50 in assay [1] (Homo sapiens, MM1.S, 96 h) was determined as 0.602 µM.

As for `Cc1nnn2c1-c1ccc(-c3cnn(C)c3)cc1C(Nc1ccc(CO)cc1)CC2` (stereo not drawn) [LB35, (4-((1-methyl-9-(1-methyl-1H-pyrazol-4-yl)-6,7-dihydro-5H-benzo[c][1,2,3]triazolo[1,5-a]azepin-7-yl)amino)phenyl)methanol], the inhibition constant Ki at BRD4 BD1 protein was 0.614 µM; at BRD4 BD2 protein, 0.0239 µM. This compound returned a half-inhibitory concentration (IC50) in assay [1] (Homo sapiens, MM1.S, 96 h) of 0.0365 µM.

Take `Cc1nnn2c1-c1ccc(-c3cnn(C)c3)cc1C(Nc1ccc(CC(=O)O)cc1)CC2` (stereo not drawn) [LB36, 2-(4-((1-methyl-9-(1-methyl-1H-pyrazol-4-yl)-6,7-dihydro-5H-benzo[c][1,2,3]triazolo[1,5-a]azepin-7-yl)amino)phenyl)acetic acid]: the values for the Ki on BRD4 BD1 protein and on BRD4 BD2 protein were 0.0976 µM and 0.0425 µM, respectively. Inhibition in assay [1] (Homo sapiens, MM1.S, 96 h) was half-maximal at 0.412 µM (IC50).

As for `CNC(=O)Cc1ccc(NC2CCn3nnc(C)c3-c3ccc(-c4cnn(C)c4)cc32)cc1` (stereo not drawn) [LB42, N-methyl-2-(4-((1-methyl-9-(1-methyl-1H-pyrazol-4-yl)-6,7-dihydro-5H-benzo[c][1,2,3]triazolo[1,5-a]azepin-7-yl)amino)phenyl)acetamide], the results for the inhibition constant (Ki) on BRD4 BD1 protein and at BRD4 BD2 protein were 0.0345 µM and 0.00819 µM, respectively. Further, the half-inhibitory concentration (IC50) in assay [1] is 0.016 µM.

Take `Cc1nnn2c1-c1ccc(-c3cnn(C)c3)cc1C(Nc1cccc(CC(=O)O)c1)CC2` (stereo not drawn) [LB62, 2-(3-((1-methyl-9-(1-methyl-1H-pyrazol-4-yl)-6,7-dihydro-5H-benzo[c][1,2,3]triazolo[1,5-a]azepin-7-yl)amino)phenyl) acetic acid]: the inhibition constant Ki at BRD4 BD1 protein was 0.229 µM; at BRD4 BD2 protein, 0.013 µM. Moreover, in assay [1] (Homo sapiens, MM1.S, 96 h), the half-maximal inhibitory concentration (IC50) stood at 14 µM.

For the compound `COC(=O)Cc1cccc(NC2CCn3nnc(C)c3-c3ccc(-c4cnn(C)c4)cc32)c1` (stereo not drawn) [LB63, methyl 2-(3-((1-methyl-9-(1-methyl-1H-pyrazol-4-yl)-6,7-dihydro-5H-benzo[c][1,2,3]triazolo[1,5-a]azepin-7-yl)amino)phenyl)acetate], the Ki at BRD4 BD1 protein was 0.0778 µM; at BRD4 BD2 protein it was 0.014 µM. The compound also had an IC50 in assay [1] (Homo sapiens, MM1.S, 96 h) of 0.16 µM.

The record behind these values is patent US12286435B2, “Compound having benzo seven-membered ring structure, preparation method therefor, and use thereof” (BIONNA (BEIJING) MEDICAL TECHNOLOGY CO., LTD., priority 2019, dated 2025).
